According to ChEMBL document CHEMBL1145182, “Molecular dynamics simulations of the TEM-1 beta-lactamase complexed with cephalothin” (J Med Chem, 2005):

Target: Beta-lactamase TEM (Escherichia coli) (UniProt P62593)
Experiment: Rate of catalysis against TEM-1 beta-lactamase

Sequence of Beta-lactamase TEM (Escherichia coli) (P62593 whole entry): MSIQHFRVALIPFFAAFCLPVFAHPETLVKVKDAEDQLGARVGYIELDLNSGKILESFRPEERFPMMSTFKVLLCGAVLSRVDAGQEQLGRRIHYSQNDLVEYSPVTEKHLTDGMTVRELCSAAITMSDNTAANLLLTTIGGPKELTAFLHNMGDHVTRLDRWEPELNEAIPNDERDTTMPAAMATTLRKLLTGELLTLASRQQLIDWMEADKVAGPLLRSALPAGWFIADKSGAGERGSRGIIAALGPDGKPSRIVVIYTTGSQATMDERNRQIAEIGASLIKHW

K cat	SMILES
1280 1/S	CC1(C)S[C@@H]2[C@H](NC(=O)Cc3ccccc3)C(=O)N2[C@H]1C(=O)O
115 1/S	CC(=O)OCC1=C(C(=O)O)N2C(=O)[C@@H](NC(=O)Cc3cccs3)[C@H]2SC1
